Here are results for 138 compounds from PubChem BioAssay AID1188 (EPA DSSTox, 2008).

Calls of active or inactive are those of the source.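 Rule for the calls: active = a concentration killing half the fathead minnows in the acute test was determined; inconclusive = some fish died but not half at top dose; inactive = no fish died even at top dose.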

The test system of this series is Fathead minnow (Pimephales promelas) acute toxicity, lethality. The series can be described thus: DSSTox (EPAFHM) EPA Fathead Minnow Acute Toxicity. In a few lines:
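Activity score is an integer 1–100 scaling of log10(1/LC50 in mmol) between dataset minimum and maximum, highest potency = 100. Underlying LC50 values (mg) come from the U.S. EPA MED database.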
Turning to `C1COCCO1`, the Potency is 117000 µM. Same read-out and setting: to `C=C(C)C(=O)OCCO` belongs 1740 µM; to `COC(=O)c1ccc(C(=O)OC)c(N)c1`, 42.7 µM; to `CCCCCCOc1ccc(N)cc1`, 15.6 µM. `C=CC(=O)OCCCCCCCCCCCC`: the outcome was “inactive; moa not determined either due to lack of toxicity at saturation or late test res”. Consider `CC1(C)NC(=O)NC1=O`, for which the Potency was 129000 µM. On to `Cc1cocn1`, for which the Potency is 16700 µM. Consider `CC(=O)c1ccccc1`, for which the Potency is 1350 µM.

With `CCCCCCCCCO`, the Potency was 39.5 µM.

With `CCCCCCCCCCc1ccc(N)cc1`, the Potency was 0.266 µM. Consider `C(/C=C/c1ccccc1)=C\c1ccccc1`, for which the outcome was “inactive; moa not determined either due to lack of toxicity at saturation or late test res”. On to `C1N2CN3CN1CN(C2)C3`, for which the Potency was 355000 µM. Regarding `NCCCN1CCN(CCCN)CC1`, the Potency was 15500 µM. The same measure, in the same setting: then `CCCCCC(C)=O`, with 1150 µM. `C=CCOC(=O)C(=C)C`: the Potency is 7.85 µM.

Take `Oc1ccc(Cl)cc1Cl`: the Potency is 47.5 µM. Consider `Cc1cccc(OP(=O)(Oc2cccc(C)c2C)Oc2cccc(C)c2C)c1C`, for which the outcome was “inactive; moa not determined either due to lack of toxicity at saturation or late test res”. Take `CC(=O)CCC=C(C)C`: the Potency was 679 µM. As for `Oc1ccccc1`, the Potency is 347 µM.

`CNC(=O)Oc1ccc(N(C)C)c(C)c1`: the Potency was 9.36 µM. With `CCN(CC)CCO`, the Potency was 15200 µM. Turning to `CCC(=O)CC`, the Potency was 17900 µM. Take `CCCCCCCCCCCCCC=O`: the outcome was “inactive; moa not determined either due to lack of toxicity at saturation or late test res”.

In the case of `CC/C(C)=N/O`, the Potency is 9680 µM. Still for that read-out and setting: to `C#CC(O)CCCC` (stereo not drawn) belongs 15.7 µM; to `Oc1ccc(Oc2ccccc2)cc1`, 26.6 µM. As for `CC1(C)CCC(C)(C)O1`, the Potency was 1310 µM. In the case of `N#CCCCCCCC#N`, the Potency was 3880 µM. For `Oc1cccnc1Cl`, the Potency was 4800 µM. As to `CN(C)c1ccc(/C=C/C=O)cc1`, the Potency is 36.7 µM.

As for `COC(=O)c1ccc(C(=O)OC)c([N+](=O)[O-])c1`, the Potency is 27.3 µM. On to `O=[N+]([O-])c1cccc(Cl)c1`, for which the Potency was 119 µM. Turning to `OCCCl`, the Potency is 667 µM. As for `C=C(C)C(=O)OCc1ccccc1`, the Potency was 26.5 µM. Regarding `CC(C)CO`, the Potency was 19300 µM. For `CCCCCCN`, the Potency was 559 µM. Consider `c1cc2c3c(cccc3c1)CC2`, for which the Potency is 11.2 µM.

For `O=Cc1ccc([N+](=O)[O-])cc1`, the Potency is 66.8 µM.

With `CC(=O)C(C)C`, the Potency is 10000 µM. Consider `Nc1ccc([N+](=O)[O-])cc1`, for which the Potency was 905 µM. For `O=Cc1cccc(Oc2ccc(Cl)c(Cl)c2)c1`, the Potency is 1.12 µM. Take `C#CC(C)O` (stereo not drawn): the Potency was 167 µM. The same measure, in the same setting: to `NC(=O)c1c(Cl)cccc1Cl` belongs 2470 µM. On to `CCCCCCCCCCCCCO`, for which the outcome was “inactive; moa not determined either due to lack of toxicity at saturation or late test res”.

With `O=C(O)c1cccc(C(=O)O)n1`, the Potency was 1930 µM. For `O=[N+]([O-])c1ccccc1Oc1ccc(Cl)cc1`, the Potency is 7.69 µM.

In the case of `CCN(CCO)c1cccc(C)c1`, the Potency was 295 µM.

Regarding `CC1=CC(=O)c2ccccc2C1=O`, the Potency is 0.639 µM. `CC(C)C(O)C(C)C`: the Potency was 1400 µM. With `CCc1ccccc1`, the Potency is 98.9 µM. For the compound `O=Cc1cccc(C(F)(F)F)c1`, the Potency is 5.31 µM.

As to `CCc1ccc(C)nc1`, the Potency is 669 µM.

For the compound `O=C(c1ccccc1)c1ccncc1`, the Potency was 562 µM. As for `Oc1ccc(Oc2ccc(O)cc2)cc1`, the Potency was 28.6 µM.

As to `CC(C)C(C)N` (stereo not drawn), the Potency is 3260 µM. For the compound `Cl/C=C/CCl`, the Potency was 2.15 µM. Regarding `c1ccc2c(c1)CCO2`, the Potency was 680 µM. Consider `Cc1ccc(N)cc1`, for which the Potency is 1490 µM. In the case of `O=Cc1ccc(Cl)cc1Cl`, the Potency is 10.3 µM. With `COc1cccc(C=O)c1O`, the Potency was 15.8 µM. In the case of `Nc1ccc(Cl)cc1`, the Potency is 246 µM.

Consider `CN(C)C(=O)Nc1ccc(Cl)c(Cl)c1`, for which the Potency is 60.9 µM. Same read-out and setting: to `OC(c1ccc(Cl)cc1)(c1ccc(Cl)cc1)C(Cl)(Cl)Cl` belongs 1.67 µM; to `CCCSCCCCSCCC`, 14.5 µM. On the same count and under the same terms, then `CCCCCCCO`, with 297 µM. Regarding `CC/C=C\CCO`, the Potency was 3800 µM. On to `CCCCOC(C)=O`, for which the Potency was 155 µM. As for `C=C(CCl)CCl`, the Potency was 1.52 µM. Still for that read-out and setting: to `CCOC(N)=O` belongs 58800 µM. In the case of `CCSCCCCSCC`, the Potency is 34 µM. In the case of `CCCC(C)C1(CC)C(=O)N=C(O)NC1=O` (stereo not drawn), the Potency is 199 µM. As to `C#CC1(O)CCCCC1`, the Potency was 2060 µM. Take `CC(C)=CC1C(C(=O)OCc2coc(Cc3ccccc3)c2)C1(C)C` (stereo not drawn): the Potency was 0.0182 µM. Take `O=[N+]([O-])c1cccc(P(=O)(c2cccc([N+](=O)[O-])c2)c2cccc([N+](=O)[O-])c2)c1`: the outcome is “inactive; moa not determined either due to lack of toxicity at saturation or late test res”. As for `CCCCCCCCCCCC(N)=O`, the outcome is “inactive; moa not determined either due to lack of toxicity at saturation or late test res”.

As for `CNC(=O)Oc1ccc(C(C)(C)C)cc1`, the Potency was 48.2 µM.

Consider `CCCCCCCCc1ccc(N)cc1`, for which the Potency was 0.584 µM. With `CCCSSCCC`, the Potency is 17 µM. As for `Brc1nc(Br)c(Br)[nH]1`, the Potency is 20.1 µM.

`ClC(Cl)=C(Cl)C(Cl)=C(Cl)Cl`: the Potency is 0.345 µM. For `c1ccc2ncccc2c1`, the Potency was 602 µM. Regarding `C=Cn1c2ccccc2c2ccccc21`, the Potency is 0.0166 µM. Take `OC(C(F)(F)F)C(F)(F)F`: the Potency is 1450 µM. Consider `ClCC(Cl)Cl`, for which the Potency was 612 µM. As for `Cc1cc(Cl)nc(N)n1`, the Potency is 982 µM. For `Oc1ccc(Cl)cc1`, the Potency was 47.5 µM. Take `C=C[C@@](C)(O)CC[C@H]1C(=C)CC[C@H]2C(C)(C)CCC[C@]12C`: the Potency is 0.413 µM. For `C1OCOCO1`, the Potency was 66100 µM.

`CC(N)Cc1ccccc1` (stereo not drawn): the Potency was 78.2 µM. Still for that read-out and setting: to `O=C1C[C@@H]2OCC=C3CN4CC[C@]56c7ccccc7N1[C@H]5[C@H]2[C@H]3C[C@H]46` belongs 1.11 µM; to `Nc1c(Cl)c(Cl)cc(Cl)c1Cl`, 1.17 µM.

For the compound `CCCCCCCC/C=C\CCCCCCCCO`, the outcome is “inactive; moa not determined either due to lack of toxicity at saturation or late test res”.

On to `c1ccc2c(c1)oc1ccccc12`, for which the Potency was 8.92 µM.

As for `c1ccoc1`, the Potency was 896 µM.

For the compound `Clc1cccc(Cl)c1C(Cl)Cl`, the Potency was 4.22 µM. As to `Nc1ccc([N+](=O)[O-])cc1Cl`, the Potency is 116 µM. On the same count and under the same terms, then `C#CC(C)(O)CCC(C)C` (stereo not drawn), with 349 µM. For `C1CCCCC1`, the Potency was 53.8 µM.

With `CCNCC`, the Potency is 11700 µM. Same read-out and setting: to `C#CC(O)CCCCC` (stereo not drawn) belongs 3.27 µM; to `CC(=O)CC(C)=O`, 1350 µM; to `NCc1ccccc1`, 952 µM.

On to `CCCCCCCC(C)=O`, for which the Potency was 107 µM. Same read-out and setting: to `COC(=O)c1ccc(Cl)cc1[N+](=O)[O-]` belongs 128 µM. On to `O=[N+]([O-])c1ccc(O)c([N+](=O)[O-])c1`, for which the Potency was 59.2 µM.

For `Cc1ccccn1`, the Potency is 9630 µM. As for `NC(=O)c1ccc([N+](=O)[O-])cc1`, the Potency is 801 µM. As for `O=S(c1ccc(Cl)cc1)c1ccc(Cl)cc1`, the outcome is “inactive; moa not determined either due to lack of toxicity at saturation or late test res”. For the compound `C=CC(Cl)CCl` (stereo not drawn), the Potency is 65.4 µM. Consider `CCCCCCO`, for which the Potency was 956 µM. Consider `Cc1ccccc1C#N`, for which the Potency is 382 µM. With `O=C1NS(=O)(=O)c2ccccc21`, the Potency was 82000 µM. On to `CCCCCCCCOC(=O)c1cccc(C(=O)OCCCCCCCC)c1`, for which the outcome was “inactive; moa not determined either due to lack of toxicity at saturation or late test res”. Consider `CCCCC(CC)CO` (stereo not drawn), for which the Potency is 217 µM. With `CCN(CC)C1CCCCC1`, the Potency is 138 µM. On to `ClC(Cl)(Cl)C(Cl)(Cl)Cl`, for which the Potency was 6 µM.

Take `Nc1ccccc1C(=O)c1ccc(Cl)cc1`: the Potency is 9.15 µM. For the compound `COc1ccc(C(C)=O)c(O)c1`, the Potency was 418 µM. Same read-out and setting: then `CC(=O)OC(C)(C)C`, with 2820 µM; and `CC/C=C/CCO`, with 2710 µM; and `Cc1ccc(C)o1`, with 740 µM. Same read-out and setting: then `Cc1ccncc1`, with 4330 µM. Consider `Cc1ccc(Cl)c(Cl)c1`, for which the Potency was 18.1 µM. With `NC(=O)c1ccccc1`, the Potency is 5460 µM. On to `CC(=O)c1ccc(Cl)c(Cl)c1Cl`, for which the Potency is 8.95 µM. As to `CCCCCCCCCCCN`, the Potency was 1.23 µM.

As for `ClCCCCCCl`, the Potency was 179 µM. Regarding `CCCCCCC(=O)CCCCCC`, the outcome is “inactive; moa not determined either due to lack of toxicity at saturation or late test res”. With `BrCCCBr`, the Potency was 10.4 µM. Take `CC1(C)OCC(CO)O1` (stereo not drawn): the Potency is 126000 µM. `CCCCCCC1CCC(=O)O1` (stereo not drawn): the Potency is 106 µM. Turning to `CC(C)=C1C=C2CC[C@@H]3[C@](C)(CCC[C@@]3(C)C(=O)O)[C@H]2CC1`, the Potency is 4.93 µM. As to `CCOc1cc(C=O)ccc1O`, the Potency was 527 µM.

As to `CC(C)c1cccc(C(C)C)c1N`, the Potency was 86.3 µM. Regarding `ClC(Cl)=C(Cl)c1c(Cl)c(Cl)c(Cl)c(Cl)c1Cl`, the outcome was “inactive; moa not determined either due to lack of toxicity at saturation or late test res”.

Consider `Cc1cc(C)c(O)c(C)c1`, for which the Potency is 95.4 µM. In the case of `C/C=N/O`, the Potency was 1290 µM.

As for `CC(C)(O)CCc1ccccc1`, the Potency is 404 µM.
